Source: article PMC3836994, “Killer Bee Molecules: Antimicrobial Peptides as Effector Molecules to Target Sporogonic Stages of Plasmodium” (PLoS Pathogens, 2013)
No end group written: not given here.

How the values were obtained:
[1] = system: An. gambiae (Mali strain); test: Mosquito oviposition after blood feed containing AMP; assay type: in vivo, Anopheles gambiae; conditions: for Significance of effect on oviposition: 50 µM AMP, one-way ANOVA, peptide vs control; for Mean no. of eggs laid per mosquito, peptide: after first feed with 50 µM AMP, eggs laid over two nights, averaged per surviving mosquito, 3 or 4 replicates
Protocol: Female An. gambiae (Mali strain, 3–5 days old) were used to establish the effects of AMPs on mosquito longevity and fecundity in the absence of confounding factors introduced with parasite infection. Two hundred 3–6 day old females were fed on human O+ whole blood supplemented with 50 µM AMP (or water control, 1 ml total volume) via feeding chambers of a Hemotek membrane feeding system. Fully engorged mosquitoes were randomly moved into four separate cages, each containing 25 mosquitoes, to facilitate monitoring. Mortality rates were recorded daily for a 10-day period, and oviposition sites were provided on the second and third night post-feeding. A second blood feed containing the same AMP was administered 7 days later to mimic the likelihood that mosquitoes would feed at least twice in the field during the development of sporogonic stages of the malaria parasite. Oviposition sites were again provided to assess fecundity through the number of eggs laid as an average per surviving mosquito. Assays for each AMP were repeated in triplicate on separate generations of mosquitoes. Due to egg retention under experimental conditions, egg production is best measured by dissecting mosquitoes that have not been provided with an oviposition site. However, this is not a feasible method of determining fecundity when longevity is also being measured.

[2] = system: An. gambiae (Mali strain); test: Mosquito longevity after blood feeds containing AMP; assay type: in vivo, Anopheles gambiae; conditions: 50 µM AMP in blood on days 0 and 7; extended to 30 days
P. berghei = P. berghei infections in Anopheles stephensi (oocyst prevalence and intensity); assay type: in vivo, Plasmodium berghei; conditions: for Prevalence (proportion of infected mosquitoes), peptide: 50 µM peptide in gametocytaemic mouse blood fed to An. stephensi; for Intensity (mean number of oocysts, range in parentheses), peptide: 50 µM peptide, An. stephensi
Protocol: To assess the effects of AMPs on parasites in vivo, mouse blood containing P. berghei gametocytes was obtained by cardiac puncture and 475 µl was rapidly mixed with 25 µl (50 µM final concentration) of AMP. This mixture was fed to 100 nulliparous 3–5 day old female An. stephensi. A further 475 µl of blood from the same infection was mixed with 25 µl of distilled water to act as a control. Mosquitoes were maintained at 19°C for optimum parasite development. Between 30 and 50 mosquitoes were dissected after 10 days. Mosquito wing length, numbers of retained eggs and oocysts were recorded in triplicate experiments carried out on different mosquito cohorts.

[3] = system: Anopheles gambiae Sua 4.0 cells; test: Sua 4.0 mosquito cell growth (cell counts); assay type: cell-based; conditions: 25 µM AMP; for Average number of cells over 3 replicates, peptide: seeded 30×10^4/ml, mean of 3 experiments
Protocol: (§1) To establish potential effects of AMPs on mosquito cells, the An. gambiae Sua 4.0 cell line was used. This facilitated an initial high-throughput screening and provided insights into AMP toxicity, mode of action (lytic or other) and speed of action. Sua 4.0 cells were maintained at 27°C in Schneider's insect medium supplemented with 10% FBS (foetal bovine serum) in T25 culture flasks (Fisher, UK).
(§2) Each AMP was tested separately to establish if it affected cell viability and growth. […] Cells were maintained for 3, 6, 24 or 48 h, after which they were resuspended and a sub-sample from duplicate wells counted using a haemocytometer. To establish cell viability after 48 h (whether simply arrested in development or non-viable), resuspended cells were added to an equal volume of 5% erythrosin B vital dye and viable cells excluding the stain were counted. The viability of 100 cells in triplicate wells was recorded. Each AMP assay was performed in triplicate and included a negative control minus the peptide (5 µl of water alone added to the medium) and a further control of 5 µl of 10% SDS (sodium dodecyl sulphate) substituted for the AMP as this causes 100% cell lysis.

P. falciparum = test: Field P. falciparum from gametocyte carriers membrane-fed to An. gambiae (Mali); assay type: in vivo, Plasmodium falciparum; conditions: 50 µM; for Oocyst prevalence (oocyst positive mosquitoes), peptide: blood of gametocyte carriers, progeny of field An. gambiae; for Oocyst intensity (mean number of oocysts per gut, range in parentheses), peptide: field parasites and mosquitoes
[4] = system: Anopheles gambiae Sua 4.0 cells; test: Sua 4.0 mosquito cell viability (erythrosin B exclusion); assay type: cell-based; design: dose or concentration left out as unconfirmed; conditions: after 48 h culture; for Average viability of cells (3 replicates), peptide: erythrosin B exclusion, 100 cells in triplicate wells; for Reduction in cell viability: versus control
Protocol: as §1, §2

[5] = 3 hrs in culture, haemocytometer count of duplicate wells

Sequence	Significance of effect on oviposition [1]	Mean no. of eggs laid per mosquito, peptide [1]	Effect on longevity over 30 days (in words) [2]	Prevalence (proportion of infected mosquitoes), peptide (P. berghei; Replicate 1)	Intensity (mean number of oocysts, range in parentheses), peptide (P. berghei; Replicate 1)	Prevalence (proportion of infected mosquitoes), peptide (P. berghei; Replicate 2)	Intensity (mean number of oocysts, range in parentheses), peptide (P. berghei; Replicate 2)	Prevalence (proportion of infected mosquitoes), peptide (P. berghei; Replicate 3)	Intensity (mean number of oocysts, range in parentheses), peptide (P. berghei; Replicate 3)	Reduction in cell number (compared to control) ([3]; 3 hrs in culture) [%]	Average number of cells over 3 replicates, peptide [3, 5] [mL⁻¹]	Reduction in cell number (compared to control) ([3]; 24 hrs in culture) [%]	Average number of cells over 3 replicates, peptide ([3]; 24 hrs in culture) [mL⁻¹]	Reduction in cell number (compared to control) ([3]; 48 hrs in culture) [%]	Average number of cells over 3 replicates, peptide ([3]; 48 hrs in culture) [mL⁻¹]	Oocyst prevalence (oocyst positive mosquitoes), peptide (P. falciparum; Replicate 1)	Oocyst intensity (mean number of oocysts per gut, range in parentheses), peptide (P. falciparum; Replicate 1)	Oocyst prevalence (oocyst positive mosquitoes), peptide (P. falciparum; Replicate 2)	Oocyst intensity (mean number of oocysts per gut, range in parentheses), peptide (P. falciparum; Replicate 2)	Average viability of cells (3 replicates), peptide [4] [%]	other results
AGYLLGKINLKALAALAKKILGGAGYLLGKINLKALAALAKKIL [TP10 dimer, TP10 (dimer)]	N/S	25	significant reduction in survivorship	56% (50)	2 (0–84)	66% (50)	4 (0–67)	56% (50)	2 (0–13)	20	240000	42	250000	58	260000	9% (58)	<1 (0–4)	3% (38)	<1 (0–1)	1	Oocyst prevalence (oocyst positive mosquitoes), peptide (P. falciparum; Replicate 3): 20% (49); Oocyst intensity (mean number of oocysts per gut, range in parentheses), peptide (P. falciparum; Replicate 3): <1 (0–2); Reduction in cell viability [4]: 99%
KFPKFRRGIPFLFVGPSGKFPKFRRGIPFLFV [Vida 3 dimer]	N/S	43	no significant long-term effects on longevity	33% (40)	1 (0–6)	80% (50)	37 (0–271)	76% (50)	4 (0–67)	7	280000	62	170000	72	190000	3% (63)	<1 (0–1)	0% (45)	0	58	Reduction in cell number (compared to control) ([3]; 24 hrs in culture, listed as Vida3 dimer): 62%; Average viability of cells (3 replicates), peptide ([4]; listed as Vida3 dimer): above 50%; Reduction in cell viability [4]: 38%
